Test results from patent US9555038B2, “Heterocycle-substituted tetracyclic compounds and methods of use thereof for the treatment of viral diseases” (Merck Sharp & Dohme Corp., priority 2013, dated 2017).
Where two headings read alike, the source gives them in different places.

Assays:
HCV replicon 1AQ30D = assay: Cell-based HCV Replicon Assay B, replicon 1AQ30D
Method: In an alternate assay (“Replicon Assay B”), 1000 cells were seeded per well in a 384-well collagen coated black plate from Greiner bio-one (Cat #781946) in 5% FBS. Inhibitors of this invention were added at 24 h post-seeding, and the plates were incubated for 3 days. Cells were subsequently lysed with Qiagen lysis buffer (Cat #1062731) to extract the RNA. HCV replicon RNA level was measured by real-time PCR using the RNA-to-CT kit from Applied Biosystem (Cat #4392656) and genotype-specific primers and probes. The amplicon was located within NS5B. The sequence of the PCR primers are as follows: 5B.2F, ATGGACAGGCGCCCTGA (SEQ. ID NO. 1); 5B.2R, […] (SEQ. ID NO. 2); the probe sequence was FAM-labeled CACGCCATGCGCTGCGG (SEQ. ID NO. 3). To detect genotype 1A the primer 1A F, TGCGGAACCGGTGAGTACA and 1A R, […] were used; the probe sequence was FAM-[…].
The real-time RT-PCR reactions were run on ABI PRISM 7900HT or Viia7 Sequence Detection System using the following program: 48° C. for 30 minutes, 95° C. for 10 minutes, 40 cycles of 95° C. for 15 sec, 60° C. for 1 minutes. The 50% effective concentration (EC50) was the drug concentration necessary to achieve an increase in the cycle threshold (CT) of 1 over the projected baseline CT.
Data was obtained for various compounds of the present invention using the methods described in the Example above, and is presented in the table immediately below. Data for replicons 1A, 1AY93H and 2B were obtained using Replicon Assay A and data for replicons 1AQ30D and 1B were obtained using Replicon Assay B.

HCV replicon 2B = assay: Cell-based HCV Replicon Assay A, replicon 2B
In short: (§1)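 Readout: replicon RNA by real-time RT-PCR, normalised to co-amplified cyclophilin and quantified against replicon total-RNA standard curves. Cells (2000/well) treated 3 days in medium with 5% FBS and 0.5% DMSO, compound in 10 serial dilutions from starting concentrations of 333.3 nM to 1.667 nM.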

HCV replicon 1B = assay: Cell-based HCV Replicon Assay B, replicon 1B
In short: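 EC50 defined as the drug concentration giving a CT increase of 1 above projected baseline, from real-time RT-PCR of replicon RNA using genotype-specific primers and probes. Cells were seeded in 5% FBS, dosed after 24 h and incubated 3 days before lysis.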

HCV replicon 1A = assay: Cell-based HCV Replicon Assay A, replicon 1A
In short: as §1

HCV replicon 1AY93H = assay: Cell-based HCV Replicon Assay A, replicon 1AY93H
In short: as §1

[1] = Hepatitis C virus, read-out: 1A Q30D IC50 (nM), replicon 1AQ30D
[2] = read-out: 1A Y93H IC50, replicon 1AY93H
[3] = read-out: 1A Q30D IC50, replicon 1AQ30D

Row | SMILES | IC50 (HCV replicon 1AQ30D; [1]) [nM] | IC50 (HCV replicon 2B; read-out: 2B IC50, replicon 2B) [nM] | IC50 (HCV replicon 1B; Hepatitis C virus) [pM] | IC50 (HCV replicon 1A) [pM] | IC50 (HCV replicon 1AY93H; [2]) [nM] | IC50 (HCV replicon 1A; Hepatitis C virus) [pM] | IC50 (HCV replicon 1AQ30D; [3]) [nM] | IC50 (HCV replicon 1B) [pM] | IC50 (HCV replicon 2B; Hepatitis C virus, read-out: 2B IC50 (nM), replicon 2B) [nM] | IC50 (HCV replicon 1AY93H; Hepatitis C virus, read-out: 1A Y93H IC50 (nM), replicon 1AY93H) [nM]
1 | COC(=O)N[C@H](C(=O)N1CCC[C@H]1c1ncc(-c2cc(F)c3c(c2)OC(c2cnc(C4CC4)s2)n2c-3cc3cc(-c4cnc([C@@H]5CCCN5C(=O)[C@@H](NC(=O)OC)C(C)C)[nH]4)ccc32)[nH]1)C(C)C (single isomer, unassigned) [Compound 10] | 0.097 | 0.011 | 2 | 1.4 | 0.0035 | – | – | – | – | –
2 | COC(=O)N[C@H](C(=O)N1CCC[C@H]1c1ncc(-c2cc(F)c3c(c2)OC(c2cnc(OC)s2)n2c-3cc3cc(-c4cnc([C@@H]5CCCN5C(=O)[C@@H](NC(=O)OC)C(C)C)[nH]4)ccc32)[nH]1)C(C)C (single isomer, unassigned) [Compound 14] | 0.115 | 0.015 | 2 | 1.4 | 0.0034 | – | – | – | – | –
3 | COC(=O)N[C@H](C(=O)N1CCC[C@H]1c1ncc(-c2cc(F)c3c(c2)OC(c2cnc(C(F)F)s2)n2c-3cc3cc(-c4cnc([C@@H]5CCCN5C(=O)[C@@H](NC(=O)OC)C(C)C)[nH]4)ccc32)[nH]1)C(C)C (single isomer, unassigned) [Compound 20] | 0.01 | 0.008 | 1 | – | 0.0083 | 1.5 | – | – | – | –
4 | COC(=O)N[C@H](C(=O)N1CCC[C@H]1c1ncc(-c2cc(F)c3c(c2)OC(c2cnc(C4CCCC4)s2)n2c-3cc3cc(-c4cnc([C@@H]5CCCN5C(=O)[C@@H](NC(=O)OC)C(C)C)[nH]4)ccc32)[nH]1)C(C)C (single isomer, unassigned) [Compound 25] | 0.07 | 0.014 | 1 | – | 0.0025 | 2.5 | – | – | – | –
5 | COC(=O)NC(C(=O)N1[C@@H]2C[C@@H]2C[C@H]1c1ncc(-c2ccc3c(c2)cc2n3C(c3cnc(C4CC4)s3)Oc3cc(-c4cnc([C@@H]5CCCN5C(=O)[C@@H](NC(=O)OC)C(C)C)[nH]4)cc(F)c3-2)[nH]1)C(C)(C)F (single isomer, unassigned) [Compound 27] | – | 0.009 | 2 | – | 0.0037 | 1.6 | 0.02 | – | – | –
6 | COC(=O)NC(C(=O)N1[C@@H]2C[C@@H]2C[C@H]1c1ncc(-c2ccc3c(c2)cc2n3C(c3cnc(C4CC4)s3)Oc3cc(-c4cnc([C@@H]5CCCN5C(=O)[C@@H](NC(=O)OC)C(C)C)[nH]4)cc(F)c3-2)[nH]1)C(C)(C)F (single isomer, unassigned) [Compound 28] | – | 0.204 | – | 1.2 | 0.115 | – | 0.908 | 2 | – | –
7 | COC(=O)NC(C(=O)N1CCC[C@H]1c1ncc(-c2ccc3c(c2)cc2n3C(c3cnc(C)s3)Oc3cc(-c4cnc([C@@H]5CCCN5C(=O)[C@@H](NC(=O)OC)C(C)C)[nH]4)cc(F)c3-2)[nH]1)C1C[C@@H](C)O[C@@H](C)C1 (single isomer, unassigned) [Compound 30] | 0.112 | 0.014 | 3 | 2.8 | 0.0118 | – | – | – | – | –
8 | COC(=O)N[C@H](C(=O)N1CCC[C@H]1c1ncc(-c2cc(F)c3c(c2)OC(c2cnc(-c4ccc(F)cc4)s2)n2c-3cc3cc(-c4cnc([C@@H]5CCCN5C(=O)[C@@H](NC(=O)OC)C(C)C)[nH]4)ccc32)[nH]1)C(C)C (single isomer, unassigned) [Compound 31] | 0.046 | 0.004 | 1 | – | 0.0063 | 1.2 | – | – | – | –
9 | COC(=O)N[C@H](C(=O)N1CCC[C@H]1c1ncc(-c2cc(F)c3c(c2)OC(c2ncc(-c4ccc(F)cc4)s2)n2c-3cc3cc(-c4cnc([C@@H]5CCCN5C(=O)[C@@H](NC(=O)OC)C(C)C)[nH]4)ccc32)[nH]1)C(C)C (single isomer, unassigned) [Compound 33] | – | 0.746 | 1 | – | 1.18 | 1.7 | 1.67 | – | – | –
10 | COC(=O)N[C@H](C(=O)N1CCC[C@H]1c1ncc(-c2cc(F)c3c(c2)OC(c2ncc(-c4ccc(F)cc4)s2)n2c-3cc3cc(-c4cnc([C@@H]5CCCN5C(=O)[C@@H](NC(=O)OC)C(C)C)[nH]4)ccc32)[nH]1)C(C)C (single isomer, unassigned) [Compound 34] | – | 0.022 | – | 2.2 | 0.0331 | – | 0.144 | 1 | – | –
11 | CCc1ncc(C2Oc3cc(-c4cnc([C@@H]5CCCN5C(=O)[C@@H](NC(=O)OC)C(C)C)[nH]4)cc(F)c3-c3cc4cc(-c5cnc([C@@H]6CCCN6C(=O)C(NC(=O)OC)C6C[C@@H](C)O[C@@H](C)C6)[nH]5)ccc4n32)s1 (single isomer, unassigned) [Compound 36] | 0.038 | 0.005 | 3 | 2.5 | 0.004 | – | – | – | – | –
12 | CCc1ncc(C2Oc3cc(-c4cnc([C@@H]5CCCN5C(=O)[C@@H](NC(=O)OC)C(C)C)[nH]4)cc(F)c3-c3cc4cc(-c5cnc([C@@H]6CCCN6C(=O)C(NC(=O)OC)C6CCOC(C)(C)C6)[nH]5)ccc4n32)s1 (single isomer, unassigned) [Compound 40] | 0.03 | 0.006 | 3 | 3.5 | 0.0039 | – | – | – | – | –
13 | COC(=O)N[C@H](C(=O)N1CCC[C@H]1c1ncc(-c2cc(F)c3c(c2)OC(c2cnc(C4CC4)s2)n2c-3c(F)c3cc(-c4cnc([C@@H]5CCCN5C(=O)[C@@H](NC(=O)OC)C5CCOCC5)[nH]4)ccc32)[nH]1)C(C)C (single isomer, unassigned) [Compound 41] | – | 0.04 | 2 | – | 0.126 | 1.7 | 1.01 | – | – | –
14 | COC(=O)N[C@H](C(=O)N1CCC[C@H]1c1ncc(-c2cc(F)c3c(c2)OC(c2cnc(C4CC4)s2)n2c-3c(F)c3cc(-c4cnc([C@@H]5CCCN5C(=O)[C@@H](NC(=O)OC)C5CCOCC5)[nH]4)ccc32)[nH]1)C(C)C (single isomer, unassigned) [Compound 42] | – | 0.017 | – | 1.6 | 0.0141 | – | 0.123 | 2 | – | –
15 | COC(=O)N[C@H](C(=O)N1CCC[C@H]1c1ncc(-c2cc(F)c3c(c2)OC(c2ncc(-c4ccc(C#N)cc4)s2)n2c-3cc3cc(-c4cnc([C@@H]5CCCN5C(=O)[C@@H](NC(=O)OC)C(C)C)[nH]4)ccc32)[nH]1)C(C)C (single isomer, unassigned) [Compound 43] | – | 0.004 | 2 | – | 0.0081 | 2.3 | 0.077 | – | – | –
16 | COC(=O)N[C@H](C(=O)N1CCC[C@H]1c1ncc(-c2cc(F)c3c(c2)OC(c2cnc(-c4ccc(OC)cc4)s2)n2c-3cc3cc(-c4cnc([C@@H]5CCCN5C(=O)[C@@H](NC(=O)OC)C(C)C)[nH]4)ccc32)[nH]1)C(C)C (single isomer, unassigned) [Compound 45] | 0.072 | 0.011 | 1 | – | 0.006 | 1.8 | – | – | – | –
17 | COC(=O)N[C@H](C(=O)N1CCC[C@H]1c1ncc(-c2cc(C)c3c(c2)OC(c2ncc(C4CC4)s2)n2c-3cc3cc(-c4cnc([C@@H]5CCCN5C(=O)[C@@H](NC(=O)OC)C5C[C@@H](C)O[C@@H](C)C5)[nH]4)ccc32)[nH]1)C(C)C (single isomer, unassigned) [Compound 47] | – | 0.058 | 3 | – | 1.12 | 2 | 2.19 | – | – | –
18 | COC(=O)N[C@H](C(=O)N1CCC[C@H]1c1ncc(-c2cc(C)c3c(c2)OC(c2ncc(C4CC4)s2)n2c-3cc3cc(-c4cnc([C@@H]5CCCN5C(=O)[C@@H](NC(=O)OC)C5C[C@@H](C)O[C@@H](C)C5)[nH]4)ccc32)[nH]1)C(C)C (single isomer, unassigned) [Compound 48] | – | 0.016 | – | 1.5 | 0.0538 | – | 0.31 | 2 | – | –
19 | COC(=O)NC(C(=O)N1CCC[C@H]1c1ncc(-c2ccc3c(c2)cc2n3C(c3ncc(C4CC4)s3)Oc3cc(-c4cnc([C@@H]5CCCN5C(=O)[C@@H](NC(=O)OC)C(C)C)[nH]4)cc(F)c3-2)[nH]1)C1C[C@@H](C)O[C@@H](C)C1 (single isomer, unassigned) [Compound 51] | 0.152 | – | 3 | – | – | 2.2 | – | – | 0.025 | 0.0223
